In article PMC4231793 (Biology of blood and marrow transplantation : journal of …, 2012):
“And” between values parts separate entries of the source, which are not always exact repeats. Identical values can stand only once. Like-named read-outs stand apart in the source and are kept apart here. Blank lines part the entries; values can stand above or below the molecule they belong to.

Assays:
[1] = Noncompartmental pharmacokinetic analysis of whole-blood sirolimus; assay type: in vivo, human; conditions: for concentration at 0 h: Co (trough concentration prior to oral dosing)
[2] = Population pharmacokinetic analysis; assay type: in vivo, human
[3] = assay type: in vivo, human
[4] = ref [10], cited from earlier work
[5] = cited from earlier work; for AUC0–24: ref [9],[14]; for Half-life: ref [9]; for t1/2: pediatric renal transplant patients, every-12-hour schedule, calcineurin inhibitor-free protocol, ref [8]
CYP3A4 = conditions: compared with itraconazole, voriconazole, and posaconazole; ref [7],[23]; cited from earlier work
[6] = human, whole blood, oral, 2.5 mg/m^2/day
[7] = patients receiving concomitant fluconazole (i.v. or oral)
[8] = population estimate ± standard error
[9] = at 180 days, sirolimus, tacrolimus and methotrexate GVHD prophylaxis
[10] = of 63 subjects in the clinical study, sirolimus with tacrolimus

concentration at 24 h ([1]; human, whole blood, iv, 2.5 mg/m^2/day, C24 trough concentration, patients who developed grade III–IV aGVHD (n = 10), mean ± SD): 6.1 ± 2.9 ng/mL
AUC(0-t) [1, 6]: 401 ± 316 ng·h/mL
CL/F [1, 6]: 3.17 mL/min/kg
Tmax [1, 6]: 3.3 ± 1.6 h
Vd/F [1, 6]: 5.78 ± 5.7 L/kg
concentration at 24 h ([1]; human, whole blood, oral, 2.5 mg/m^2/day, C24 (trough concentration at 24 hours after oral dosing), i.v. Fluconazole (n = 16), mean ± SD (range)): 10 ng/mL
concentration at 24 h ([1]; human, whole blood, oral, 2.5 mg/m^2/day, C24 trough concentration, patients with grade 0-II aGVHD (n = 22), mean ± SD): 9.4 ± 5.5 ng/mL
concentration at 0 h ([1]; human, whole blood, oral, 2.5 mg/m^2/day, i.v. Fluconazole (n = 16), mean ± SD (range)): 8 ng/mL
Half-life ([1]; human, whole blood, oral, 2.5 mg/m^2/day, Mean t1/2, patients age ≤12 years): 21.8 h
concentration at 24 h ([1]; human, whole blood, po, 2.5 mg/m^2/day, C24 (trough concentration at 24 hours after oral dosing), All (n = 33), mean ± SD (range)): 9.1 ± 5.3 ng/mL
concentration at 24 h ([1]; human, whole blood, po, 2.5 mg/m^2/day, C24 (trough concentration at 24 hours after oral dosing), No Fluconazole (n = 11), mean ± SD (range)): 8 ng/mL
concentration at 24 h ([1]; human, whole blood, po, 2.5 mg/m^2/day, C24 (trough concentration at 24 hours after oral dosing), Oral Fluconazole (n = 6), mean ± SD (range)): 8.6 ng/mL
concentration at 0 h ([1]; human, whole blood, po, 2.5 mg/m^2/day, All (n = 33), mean ± SD (range)): 8 ± 4.6 ng/mL
concentration at 0 h ([1]; human, whole blood, po, 2.5 mg/m^2/day, No Fluconazole (n = 11), mean ± SD (range)): 6.8 ng/mL
concentration at 0 h ([1]; human, whole blood, po, 2.5 mg/m^2/day, Oral Fluconazole (n = 6), mean ± SD (range)): 11 ng/mL
Difference between trough concentrations (C24 - C0)/C24, average ([1]; n = 33, not significantly greater than 0 (P = .75)): 10.3%
C24 trough concentration ([1]; patients who developed grade III–IV aGVHD (n = 10), mean ± SD): 6.11 ± 2.89 ng/mL
C24 trough concentration ([1]; patients with grade 0-II aGVHD (n = 22), mean ± SD): 9.42 ± 5.52 ng/mL
Clearance (Cl/F), population estimate ([2]; 37 patients, 333 concentrations, estimate ± standard error): 6.66 ± 1.10 L/h
CL/F [2, 6]: 2.83 mL/min/kg
Vd [2, 6]: 26.9 ± 7.7 L
Absorption rate constant (ka) [2, 8]: 0.0535 ± 0.0104 h⁻¹
Intercompartment clearance (Q) [2, 8]: 4.62 ± 2.00 L/h
Volume of distribution of peripheral compartment (Vp) [2, 8]: 630 ± 171 L
Share of sirolimus whole-blood concentrations >12 ng/mL ([3]; above target range): 12%
Share of sirolimus whole-blood concentrations <3 ng/mL ([3]; below target range): 9%
Share of sirolimus whole-blood (trough) concentrations within target range ([3]; target range 3–12 ng/mL, with therapeutic drug monitoring): 79%
SMILES: CO[C@H]1C[C@@H]2CC[C@@H](C)[C@@](O)(O2)C(=O)C(=O)N2CCCC[C@H]2C(=O)O[C@H]([C@H](C)C[C@@H]2CC[C@@H](O)[C@H](OC)C2)CC(=O)[C@H](C)/C=C(\C)[C@@H](O)[C@@H](OC)C(=O)[C@H](C)C[C@H](C)/C=C/C=C/C=C/1C [sirolimus, Sirolimus]
Dose-normalized C24 ([1]; patients not receiving fluconazole): 2.5 ± 1.7 ng/mL/mg and 2.51 ± 1.72 ng/mL/mg
Dose-normalized C0 [1, 7]: 3.9 ± 2.5 ng/mL/mg and 3.93 ± 2.5 ng/mL/mg
Dose-normalized C24 [1, 7]: 4.8 ± 3.3 ng/mL/mg and 4.8 ± 3.34 ng/mL/mg
Cumulative incidence of grade III–IV aGVHD [4, 9]: 21%
Cumulative incidence of grade II–IV aGVHD [4, 9]: 38%
Subjects who developed thrombotic microangiopathy [4, 10]: 3 subjects
Subjects who developed veno-occlusive disease of liver [4, 10]: 7 subjects
AUC0–24 ([5]; adult kidney transplant recipients): 173 ± 50 ng·h/mL
Half-life ([5]; pediatric liver transplant recipients on sirolimus and tacrolimus): 21.2 ± 14.1 h
AUC0–24 ([5]; pediatric liver transplant recipients): 168.3 ± 86.5 ng·h/mL
t1/2 ([5]; 1 month posttransplantation): 9.7 h
t1/2 ([5]; 3 months posttransplantation): 10.8 h
AUC0–24 ([5]; pediatric small bowel transplant recipients): 177.4 ± 72.1 ng·h/mL
Half-life ([5]; small bowel transplant recipients on sirolimus and tacrolimus): 19.3 ± 5.6 h

SMILES: OC(Cn1cncn1)(Cn1cncn1)c1ccc(F)cc1F [Fluconazole]
In vitro CYP3A4 inhibition, rank among azoles (CYP3A4): weakest in vitro inhibitor of CYP3A4
